Values quoted from earlier work, collected in patent US20210315249A1, “Cannabis-Infused Product with Controlled Cannabinoid Profile User Experience” (HEXO […]., priority 2018, published 2021).
Like-named read-outs stand apart in the source and are kept apart here.

How the values were obtained:
[1] = dogs; emulsion droplet size 119 nm or 52 nm
[2] = rats; solution in MCT oil or emulsion with droplet size 160 nm or 710 nm

Structure (SMILES) | bioavailability [1] | bioavailability [2]
CCCCN(CCCC)CCC(O)c1cc2c(Cl)cc(Cl)cc2c2cc(C(F)(F)F)ccc12 (centres unmarked) [halofantrine] | comparable bioavailability | 
COc1nc(C(Cl)(Cl)Cl)c(Cl)c(OC)c1Cl [penclomedine] |  | comparable bioavailability
